# Reference: patent US20240100013A1, “SOTAGLIFLOZIN FOR IMPROVING LEFT ATRIAL FUNCTION” (CHARITÉ-UNIVERSITÄTSMEDIZIN BERLIN, priority 2021, published 2024)
# Columns and labels:
# [1] = system: HFpEF (ZSF-1 obese) rats; assay: Echocardiography of LA size in the ZSF-1 obese rat model of HFpEF after chronic treatment; format: in vivo; conditions: 30 mg/kg/day oral feeding, seven weeks, vs vehicle
# Text: Animal experiments were approved by local authorities. The ZSF-1 obese rat model is based on a leptin receptor mutation resulting in severe metabolic dysfunction. See Bilan V P, Salah E M, Bastacky S, Jones H B, Mayers R M, Zinker B, Poucher S M, Tofovic S P: “Diabetic nephropathy and long-term treatment effects of rosiglitazone and enalapril in obese ZSF1 rats,” J Endocrinol 2011, 210(3):293-308. The model has repeatedly been reported to show distinct features of HFpEF, such as an increased left ventricular (LV) end diastolic pressure, LV hypertrophy, diastolic dysfunction, lung congestion and LA remodeling, while maintaining a preserved ejection fraction (EF).
# Echocardiography. Echocardiography was performed and analyzed as previously described (See Hohendanner F, Bode D, Primessnig U, Guthof T, Doerr R, Jeuthe S, Reimers S, Zhang K, Bach D, Wakula P et al: “Cellular mechanisms of metabolic syndrome-related atrial decompensation in a rat model of HFpEF” J Mol Cell Cardiol 2018, 115:10-19) by an experienced observer (N.H.) blinded to the treatment group immediately prior to sacrifice using a vevo lab ultrasound system to assess LA size and LV fractional shortening in vivo. 1-lead electrocardiograms were obtained during echocardiography and the presence or absence of atrial rhythm disorders i.e., atrial fibrillation was documented.
# [2] = system: LA cardiomyocytes; assay: Spontaneous SR Ca2+ release events (SCaEs) of isolated LA cardiomyocytes; format: cell-based, rat; conditions: HFpEF LA cardiomyocytes after chronic treatment
# Text: Cardiomyocyte isolation. LA and LV cardiomyocytes were isolated using enzymatic digestion as previously described in detail. See Bode D, Guthof T, Pieske B M, Heinzel F R, Hohendanner F: “Isolation of Atrial Cardiomyocytes from a Rat Model of Metabolic Syndrome-related Heart Failure with Preserved Ejection Fraction,” J Vis Exp 2018(137).
# Solutions and chemicals. Chemicals were obtained from Sigma-Aldrich (St. Louis, MO, USA) unless noted otherwise. The dual SGLT1/2 inhibitor sotagliflozin was provided by Lexicon Pharmaceuticals (The Woodlands, TX, USA). Fluorescent dyes Fura-2 AM, Rhod-2 AM, MitoTracker red, MitoTracker green, TMRE and H2-DCF were obtained from Thermo Fisher Scientific (Waltham, MA, USA). Tyrode solution contained (in mM): 130 NaCL, 4 KCl, 2 CaCl, 1 MgCl2, 10 Glucose, 10 HEPES; pH adjusted to 7.4 with NaOH. LA cardiomyocytes were plated on laminin-coated glass coverslips. 20 mM caffeine was added to Tyrode solution to induce sarcoplasmic reticulum (SR) Ca^2+ release and obtain a measure of SR Ca^2+ content. […]
# Ca^2+ measurements and sarcomere shortening. Radiometric Ca^2+ measurements (excitation: 340 nm and 385 nm, emission: 510±10 nm; [Ca^2+] expressed as the ratio R=F340/F380) were performed either with a CytoCypher MultiCell System (CytoCypher BV, Netherlands; FIGS. 1C-F, 2D-G, 4A-F) or an Axiovert 200 microscope (Zeiss, Oberkochen, Germany) fluorescence imaging assembly (FIGS. 2A-C, 2H-J, 3A-E, 6E-I). […] Experiments were conducted at 37° C. and CaT were recorded at steady state (following electric stimulation).
# CaT and sarcomere shortening of LA and LV cardiomyocytes were recorded for 10 s at 3 Hz stimulation. See FIGS. 2D-G, 4A-F. Electric stimulation was turned off and spontaneous SR Ca^2+ release events (See Voigt N, Heijman J, Wang Q, Chiang D Y, Li N, Karck M, Wehrens X H T, Nattel S, Dobrev D: “Cellular and molecular mechanisms of atrial arrhythmogenesis in patients with paroxysmal atrial fibrillation,” Circulation 2014, 129(2):145-156) (SCaEs) immediately recorded for a duration of 10 s (FIG. 1C-F). […]
# [3] = system: LA cardiomyocytes; assay: Caffeine-induced CaT: SR Ca2+ load, tau of decay and NCX forward-mode activity; format: cell-based, rat
# Text: Solutions and chemicals. Chemicals were obtained from Sigma-Aldrich (St. Louis, MO, USA) unless noted otherwise. The dual SGLT1/2 inhibitor sotagliflozin was provided by Lexicon Pharmaceuticals (The Woodlands, TX, USA). Fluorescent dyes Fura-2 AM, Rhod-2 AM, MitoTracker red, MitoTracker green, TMRE and H2-DCF were obtained from Thermo Fisher Scientific (Waltham, MA, USA). Tyrode solution contained (in mM): 130 NaCL, 4 KCl, 2 CaCl, 1 MgCl2, 10 Glucose, 10 HEPES; pH adjusted to 7.4 with NaOH. LA cardiomyocytes were plated on laminin-coated glass coverslips. 20 mM caffeine was added to Tyrode solution to induce sarcoplasmic reticulum (SR) Ca^2+ release and obtain a measure of SR Ca^2+ content. For baseline recordings of Ca^2+ transient (CaT), sarcomere shortening and arrhythmic events (FIGS. 1C-F, 2A-E, 3A-F), Tyrode solution containing 3 mM Ca^2+ was used. For glucose starvation (FIGS. 2H-J, 5A-D), glucose of Tyrode solution was replaced with 30 mM mannitol. For sub-sequent glucose reintroduction, mannitol was replaced with 30 mM glucose (“high glucose condition”).
# Ca^2+ measurements and sarcomere shortening. Radiometric Ca^2+ measurements (excitation: 340 nm and 385 nm, emission: 510±10 nm; [Ca^2+] expressed as the ratio R=F340/F380) were performed either with a CytoCypher MultiCell System (CytoCypher BV, Netherlands; FIGS. 1C-F, 2D-G, 4A-F) or an Axiovert 200 microscope (Zeiss, Oberkochen, Germany) fluorescence imaging assembly (FIGS. 2A-C, 2H-J, 3A-E, 6E-I). LA cardiomyocytes were loaded with Fura-2 for 30 min at room temperature, washed twice with Tyrode solution and transferred to the microscope. Experiments were conducted at 37° C. and CaT were recorded at steady state (following electric stimulation).
# CaT and sarcomere shortening of LA and LV cardiomyocytes were recorded for 10 s at 3 Hz stimulation. See FIGS. 2D-G, 4A-F. Electric stimulation was turned off and spontaneous SR Ca^2+ release events (See Voigt N, Heijman J, Wang Q, Chiang D Y, Li N, Karck M, Wehrens X H T, Nattel S, Dobrev D: “Cellular and molecular mechanisms of atrial arrhythmogenesis in patients with paroxysmal atrial fibrillation,” Circulation 2014, 129(2):145-156) (SCaEs) immediately recorded for a duration of 10 s (FIG. 1C-F). In a sub-set of LA cells, CaT were recorded for 10 s at 1 Hz stimulation. Electric stimulation was turned off, the cells immediately exposed to 20 mM caffeine and the sub-sequent caffeine-induced CaT recorded for 10 s (FIG. 2A-C, 3A-E). Sodium-calcium exchanger (NCX) activity was calculated as previously described. See Hohendanner F, Walther S, Maxwell J T, Kettlewell S, Awad S, Smith G L, Lonchyna V A, Blatter L A: “Inositol-1,4,5-trisphosphate induced Ca^2+ release and excitation-contraction coupling in atrial myocytes from normal and failing hearts,” J Physiol 2015, 593(6):1459-1477.
# [4] = system: LA cardiomyocytes; assay: Mitochondrial depolarization (TMRE) in LA cardiomyocytes; format: cell-based, rat; conditions: differences between groups
# Method: Mitochondrial depolarization. LA cardiomyocytes were loaded with TMRE and MitoTracker green, transferred to an LSM 800 laser scanning microscope and kept in Tyrode's solution containing 2 mM Ca^2+ and 10 nM TMRE. Two-dimensional images of TMRE (excitation: 561 nm, emission: 565-585 nm) and MitoTracker green fluorescence (excitation: 488 nm, emission: 505-525 nm) were acquired for a duration of 6 min (interval: 2 s, resolution: 512×512 px, pixel size: 1.25 μm, pixel time: 1.03 μs, laser intensity: 4%). A binary mask of both channels was derived using a Bernsen thresholding algorithm (ImageJ). Positive pixels of the MitoTracker green image were defined as mitochondria and a positive overlay of the TMRE image assumed to indicate a polarized state. The standard deviation of polarized mitochondria over time was taken as a measure of spatiotemporal oscillation.
# [5] = setting of diabetes; cited from earlier work
smiles,measurement,setting,value
"CCOc1ccc(Cc2cc([C@@H]3O[C@H](SC)[C@@H](O)[C@H](O)[C@H]3O)ccc2Cl)cc1 [sotagliflozin, (2S,3R,4R,5S,6R)-2-(4-chloro-3-(4-ethoxybenzyl)phenyl)-6-(methylthio)tetrahydro-2H-pyran-3,4,5-triol]",LA enlargement (LA volume in vivo),[1],mitigates LA enlargement
same,amplitude of SCaEs,[2],significantly reduced
same,SCaE event frequency,[2]; non-stimulated interval after 3 Hz,remained unaltered
same,SR Ca2+ load,"[3]; HFpEF, 20 mM caffeine",no effect
same,tau of caffeine-induced CaT,"[3]; HFpEF, 20 mM caffeine",unchanged
same,tau of decay (paced CaT),"[3]; HFpEF, 1 Hz electric stimulation",significantly prolonged
same,increase of contribution of NCX forward-mode activity on cytosolic Ca2+ removal,"[3]; HFpEF, Sota vs vehicle",−50%
same,contribution of NCX forward-mode activity on cytosolic Ca2+ removal,"[3]; HFpEF, vehicle 7.6±0.7, n=14 and 21 cells",11.6±0.7%
same,increased forward mode NCX activity,"[3]; after chronic treatment, HFpEF vs WT","only occurs in HFpEF, but not WT"
same,incidence and spatial distribution of mitochondrial depolarizations,[4],could not be detected
same,effects on blood pressure and body weight,[5],beneficial effects
